From ChEMBL document CHEMBL4627328, “Synthesis and in vitro evaluation of antimycobacterial and cytotoxic activity of new α,β-unsaturated amide, oxazoline and oxazole derivatives from l-serine” (Bioorg Med Chem Lett, 2020)
In brackets after ≈: the same amount, converted by molar mass.

Experiments:
[1] = tested on: Mycobacterium tuberculosis; assay: Antimycobacterial activity against Mycobacterium tuberculosis H37Rv ATCC 27294 incubated for 5 days by alamar blue based colorimetric assay; assay type: functional; conditions: H37Rv ATCC 27294, 120 h
[2] = Cytotoxicity against monkey Vero cells assessed as cell viability at 50 ug/ml by WST-1 assay relative to control; assay type: cell-based; conditions: chlorocebus sabaeus, read-out: Activity
[3] = Cytotoxicity against monkey Vero cells assessed as cell viability at 100 ug/ml by WST-1 assay relative to control; assay type: cell-based; conditions: chlorocebus sabaeus, read-out: Activity

COC(=O)[C@H](CO)NC(=O)/C=C/c1ccc(OC)cc1
MIC [1]: > 358 µM
viability at 50 ug/ml [2]: 100%
viability at 100 ug/ml [3]: 103%

O=C(/C=C/c1ccc(F)cc1)O/C(=N/C1CCCCC1)NC1CCCCC1
MIC [1]: > 268 µM
viability at 50 ug/ml [2]: 82.5%
viability at 100 ug/ml [3]: 85.5%

COC(=O)[C@@H]1COC(/C=C/c2ccccc2)=N1
MIC [1]: 54.1 µM (≈ 12.5 µg/mL)
viability at 50 ug/ml [2]: 68.6%
viability at 100 ug/ml [3]: 12.4%

COC(=O)[C@H](COC(=O)/C=C/c1ccc(F)cc1)NC(=O)/C=C/c1ccc(F)cc1
MIC [1]: 120 µM (≈ 50 µg/mL)
viability at 50 ug/ml [2]: 21.1%
viability at 100 ug/ml [3]: 8.65%

COC(=O)[C@H](CO)NC(=O)/C=C/c1ccc(C)cc1
MIC [1]: > 380 µM
viability at 50 ug/ml [2]: 100%
viability at 100 ug/ml [3]: 101%

COC(=O)[C@@H]1COC(/C=C/c2ccc(F)cc2)=N1
MIC [1]: 50.1 µM (≈ 12.5 µg/mL)
viability at 50 ug/ml [2]: 91.6%
viability at 100 ug/ml [3]: 18.6%

COC(=O)[C@H](CO)NC(=O)/C=C/c1ccccc1
MIC [1]: > 401 µM
viability at 50 ug/ml [2]: 97.1%
viability at 100 ug/ml [3]: 99.4%

COC(=O)[C@H](COC(=O)/C=C/c1ccccc1)NC(=O)/C=C/c1ccccc1
MIC [1]: > 264 µM
viability at 50 ug/ml [2]: 16.8%
viability at 100 ug/ml [3]: 10.7%

COC(=O)[C@H](CO)NC(=O)/C=C/c1ccc(F)cc1
MIC [1]: > 374 µM

CC[C@@H](CO)NCCN[C@@H](CC)CO [ETHAMBUTOL]
MIC [1]: 15.2 µM (≈ 3.11 µg/mL)

COC(=O)c1coc(/C=C/c2ccc(C)cc2)n1
MIC [1]: 3.21 µM (≈ 0.781 µg/mL)
viability at 50 ug/ml [2]: 102%
viability at 100 ug/ml [3]: 100%

C[C@H]1COc2c(N3CCN(C)CC3)c(F)cc3c(=O)c(C(=O)O)cn1c23 [LEVOFLOXACIN]
MIC [1]: 0.54 µM (≈ 0.195 µg/mL)

COC(=O)[C@@H]1COC(/C=C/c2ccc(C)cc2)=N1
MIC [1]: 25.4 µM (≈ 6.23 µg/mL)
viability at 50 ug/ml [2]: 85.1%
viability at 100 ug/ml [3]: 17%

COC(=O)[C@H](COC(=O)/C=C/c1ccc(OC)cc1)NC(=O)/C=C/c1ccc(OC)cc1
MIC [1]: 114 µM (≈ 50 µg/mL)
viability at 50 ug/ml [2]: 39.1%
viability at 100 ug/ml [3]: 11.4%

O=C(/C=C/c1ccccc1)O/C(=N/C1CCCCC1)NC1CCCCC1
MIC [1]: > 282 µM
viability at 50 ug/ml [2]: 83.9%
viability at 100 ug/ml [3]: 83.8%

Cc1ccc(/C=C/C(=O)O/C(=N/C2CCCCC2)NC2CCCCC2)cc1
MIC [1]: > 271 µM
viability at 50 ug/ml [2]: 79.3%
viability at 100 ug/ml [3]: 95.5%

COC(=O)c1coc(/C=C/c2ccc(F)cc2)n1
MIC [1]: 12.6 µM (≈ 3.12 µg/mL)
viability at 50 ug/ml [2]: 102%
viability at 100 ug/ml [3]: 99%

COC(=O)[C@@H]1COC(/C=C/c2ccc(OC)cc2)=N1
MIC [1]: 23.9 µM (≈ 6.24 µg/mL)
viability at 50 ug/ml [2]: 94.8%
viability at 100 ug/ml [3]: 20.9%

COC(=O)c1coc(/C=C/c2ccccc2)n1
MIC [1]: 54.5 µM (≈ 12.5 µg/mL)
viability at 50 ug/ml [2]: 99.6%
viability at 100 ug/ml [3]: 102%

COC(=O)[C@H](COC(=O)/C=C/c1ccc(C)cc1)NC(=O)/C=C/c1ccc(C)cc1
MIC [1]: 123 µM (≈ 50 µg/mL)
viability at 50 ug/ml [2]: 28.8%
viability at 100 ug/ml [3]: 18.7%

CO[C@H]1/C=C/O[C@@]2(C)Oc3c(C)c(O)c4c(O)c(c(/C=N/N5CCN(C)CC5)c(O)c4c3C2=O)NC(=O)/C(C)=C\C=C\[C@H](C)[C@H](O)[C@@H](C)[C@@H](O)[C@@H](C)[C@H](OC(C)=O)[C@@H]1C [RIFAMPIN]
MIC [1]: 0.06 µM (≈ 0.0494 µg/mL)

COC(=O)c1coc(/C=C/c2ccc(OC)cc2)n1
MIC [1]: 24.1 µM (≈ 6.25 µg/mL)
viability at 50 ug/ml [2]: 99.6%
viability at 100 ug/ml [3]: 96.8%
